Source: patent publication US20240025913A1, “TERTIARY CARBOXAMIDE COMPOUNDS” (Vivace Therapeutics, Inc., priority 2020, published 2024)

What follows are compounds tested on 8×TBD luciferase reporter in HEK293T cells (assay: YAP Reporter Assay (firefly luciferase)). Details: Homo sapiens, HEK-293T; HEK293T cells stably transfected with 8×TBD luciferase reporter and pRLTK; 24-hr incubation; starting from 3 μM, 1:3 dilution, 10 points.
Format: cell-based
Method: HEK293T cells stably transfected with 8×TBD luciferase reporter and pRLTK in 384-well plates were treated with the test compounds, starting from 3 μM (final concentration in assay plate), 1:3 dilution, and 10 points in quadruplicates. Post 24-hr incubation with compounds at 37° C. and 5% CO2, cells were lysed and 8×TBD-driven firefly luciferase and control TK-driven renilla luciferase activities were measured using Promega Dual-Luciferase Reporter Assay System.
Reagents: The reagents used for this study are: DMEM: Invitrogen #11960077, Dual-Glo Luciferase Assay System: Promega-E2980, Puromycin Dihydrochloride: Invitrogen-A1113803, 384-well plate: PerkinElmer-6007480, L-GLUTAMINE: Invitrogen-25030164, Hygromycin B: Invitrogen-10687010, and Penicillin-Streptomycin: Merk-TMS-AB2-C
Media: The media used for this assay were: Culture Medium: DMEM+1 ug/mL puromycin+200 ug/mL hygromycin (with 10% FBS+1 mM L-glutamine); and Assay Medium: DMEM (with 10% FBS+1 mM L-glutamine+1×P/S).
Cell Plating: The appropriate media was warmed at 37° C. by water bath: Culture Medium, Assay Medium, 1*D-PBS, 0.05% trypsin-EDTA. The cells were trypsinized after removing all media, then washed with 1*sterile D-PBS and then with 2 ml 0.05% trypsin-EDTA. The cells were then incubated at RT for one minute. Then 10 ml/75 cm2 flask Assay Medium was added to each flask. Using a 10 ml pipette, the cells were then gently resuspended in the media, until the clumps completely disappeared. The cells were then transferred into 50 ml centrifuge tubes and were centrifuged at 800 rpm for 5 mins. The medium was removed and the cells were resuspended with Assay Medium. An aliquot of cells was used to count the cell density (cells/ml). The cell suspension was then diluted with Assay Medium to a concentration of 6×10^4 cells/ml. 50 ul cells suspension was then plated to 384-well plate (PerkinElmer-6007480), 3×10^3 cells/well and the cells were incubated in an incubator at 37° C., 5% CO2.
Compound Treatment: In the afternoon (incubation of the plate with 3-4 hrs), the test compounds were added by Echo, starting from 3 uM (final concentration in the assay plate), 1:3 dilution, 10 points, quadruplicates. The plate was placed at 37° C., 5% CO2 incubator for 24 hrs.
Detection: The Dual-Glo Luciferase Reagent was prepared by transferring the contents of one bottle of Dual-Glo Luciferase Buffer to one bottle of Dual-Glo Luciferase Substrate to create the Dual-G Luciferase Reagent. Mixing was performed by inversion until the substrate was thoroughly dissolved. After mixing, the reagent was aliquoted into 15 ml tubes. In the afternoon (24 hrs post compound treatment), the DMEM+ medium in the 384 well plates were aspirated by Microplate Washer.
Measuring firefly luciferase activity: 20 ul Dual-Glo Luciferase Reagent was added to the 384-well plates. The plates were protected from light to prevent interference with the assay. The plates were shaken for […] followed centrifuging plates at 1000 rpm for 30 seconds. After waiting at least 10 minutes, the firefly luminescence was measured by Envision.
Measuring renilla luciferase activity: 20 ul Stop-Glo Reagent was added to the 384-well plates. The plates were shaken for […] and then centrifuged at 1000 rpm for 30 seconds. After waiting at least 10 minutes, the renilla luminescence was measured by Envision.
Compound IC50 and maximum inhibition on the firefly luciferase and renilla luciferase activities were reported separately.

How did the IC50 turn out when `CCNCC1CN(C(=O)c2ccc3c(Oc4ccc(C(F)(F)F)cc4)cccc3c2)C1` [Compound 33, (3-((Ethylamino)methyl)azetidin-1-yl)(5-(4-(trifluoromethyl)phenoxy)naphthalen-2-yl)methanone] was run?
The IC50 was 100 to 1000 nM.

With `NC1CCN(C(=O)c2ccc3c(Oc4ccc(C(F)(F)F)cc4)cccc3c2)C1` (stereo not shown) [Compound 3, (3-Aminopyrrolidin-1-yl)(5-(4-(trifluoromethyl)phenoxy)naphthalen-2-yl)methanone] as the compound, how does the IC50 read?
Its IC50 is 100 to 1000 nM.

How did the IC50 turn out when `O=C(c1ccc2c(Oc3ccc(C(F)(F)F)cc3)cccc2c1)N1CC(CNc2ccccn2)C1` [Compound 40, (3-((Pyridin-2-ylamino)methyl)azetidin-1-yl)(5-(4-(trifluoromethyl)phenoxy)naphthalen-2-yl)methanone] was run?
The IC50 was ≤ 100 nM.

How did the IC50 turn out when `O=C(c1ccc2c(Oc3ccc(C(F)(F)F)cc3)cccc2c1)N1CC(NCCF)C1` [Compound 31, (3-((2-Fluoroethyl)amino)azetidin-1-yl)(5-(4-(trifluoromethyl)phenoxy)naphthalen-2-yl)methanone] was run?
Its IC50 is 100 to 1000 nM.

Which IC50 does the source give for `CC(C)NC1CN(C(=O)c2ccc3c(Oc4ccc(C(F)(F)F)cc4)cccc3c2)C1` [Compound 28, (3-(Isopropylamino)azetidin-1-yl)(5-(4-(trifluoromethyl)phenoxy)naphthalen-2-yl)methanone] here?
The IC50 was ≤ 100 nM.

Which IC50 does the source give for `CNC1CN(C(=O)c2ccc3c(Oc4ccc(C(F)(F)F)cc4)cccc3c2)C1` [Compound 26, (3-(Methylamino)azetidin-1-yl)(5-(4-(trifluoromethyl)phenoxy)naphthalen-2-yl)methanone] here?
Its IC50 is 100 to 1000 nM.

How did the IC50 turn out when `CN(C#N)C(=O)c1ccc2c(Oc3ccc(C(F)(F)F)cc3)cccc2c1` [Compound 43, N-cyano-N-methyl-5-(4-(trifluoromethyl)phenoxy)-2-naphthamide] was run?
The IC50 was ≤ 100 nM.

With `O=C(c1ccc2c(Oc3ccc(C(F)(F)F)cc3)cccc2c1)N1CC2(CN(CCO)C2)C1` [Compound 21, (6-(2-Hydroxyethyl)-2,6-diazaspiro[3.3]heptan-2-yl)(5-(4-(trifluoromethyl)phenoxy)naphthalen-2-yl)methanone] as the compound, how does the IC50 read?
The IC50 was 100 to 1000 nM.

How did the IC50 turn out when `COCCNC1CN(C(=O)c2ccc3c(Oc4ccc(C(F)(F)F)cc4)cccc3c2)C1` [Compound 29, (3-((2-Methoxyethyl)amino)azetidin-1-yl)(5-(4-(trifluoromethyl)phenoxy)naphthalen-2-yl)methanone] was run?
Its IC50 is 100 to 1000 nM.

With `O=C(c1ccc2c(Oc3ccc(C(F)(F)F)cc3)cccc2c1)N1CC2(CN(CC(F)F)C2)C1` [Compound 24, (6-(2,2-Difluoroethyl)-2,6-diazaspiro[3.3]heptan-2-yl)(5-(4-(trifluoromethyl)phenoxy)naphthalen-2-yl)methanone] as the compound, how does the IC50 read?
Its IC50 is 100 to 1000 nM.

`O=C(c1ccc2c(Oc3ccc(C(F)(F)F)cc3)cccc2c1)N1CC(Nc2ccccn2)C1` [Compound 39, (3-(Pyridin-2-ylamino)azetidin-1-yl)(5-(4-(trifluoromethyl)phenoxy)naphthalen-2-yl)methanone] was tested. Which IC50 did it give?
The IC50 was 100 to 1000 nM.

For `O=C(c1ccc2c(Oc3ccc(C(F)(F)F)cc3)cccc2c1)N1CCNCC1` [Compound 2, Piperazin-1-yl(5-(4-(trifluoromethyl)phenoxy)naphthalen-2-yl)methanone], which IC50 is on record?
The IC50 was 1000 to 3000 nM.

For `CN(C)C(=O)c1ccc2c(Oc3ccc(C(F)(F)F)cc3)cccc2c1` [Compound 42, N,N-dimethyl-5-(4-(trifluoromethyl)phenoxy)naphthalene-2-carboxamide], which IC50 is on record?
The IC50 was 100 to 1000 nM.

`COCCNCC1CN(C(=O)c2ccc3c(Oc4ccc(C(F)(F)F)cc4)cccc3c2)C1` [Compound 35, (3-(((2-Methoxyethyl)amino)methyl)azetidin-1-yl)(5-(4-(trifluoromethyl)phenoxy)naphthalen-2-yl)methanone] was tested. Which IC50 did it give?
The IC50 was 100 to 1000 nM.

For `NCC1CCCN(C(=O)c2ccc3c(Oc4ccc(C(F)(F)F)cc4)cccc3c2)C1` (stereo not shown) [Compound 9, (3-(Aminomethyl)piperidin-1-yl)(5-(4-(trifluoromethyl)phenoxy)naphthalen-2-yl)methanone], which IC50 is on record?
The IC50 was 100 to 1000 nM.

How did the IC50 turn out when `O=C(c1ccc2c(Oc3ccc(C(F)(F)F)cc3)cccc2c1)N1CC2(C1)CN(c1ccccn1)C2` [Compound 41, (6-(Pyridin-2-yl)-2,6-diazaspiro[3.3]heptan-2-yl)(5-(4-(trifluoromethyl)phenoxy)naphthalen-2-yl)methanone] was run?
Its IC50 is 1000 to 3000 nM.

For `CS(=O)(=O)NCC1CN(C(=O)c2ccc3c(Oc4ccc(C(F)(F)F)cc4)cccc3c2)C1` [Compound 17, N-((1-(5-(4-(trifluoromethyl)phenoxy)-2-naphthoyl)azetidin-3-yl)methyl)methanesulfonamide], which IC50 is on record?
Its IC50 is ≤ 100 nM.

`CN(C)C1CN(C(=O)c2ccc3c(Oc4ccc(C(F)(F)F)cc4)cccc3c2)C1` [Compound 12, (3-(Dimethylamino)azetidin-1-yl)(5-(4-(trifluoromethyl)phenoxy)naphthalen-2-yl)methanone] was tested. Which IC50 did it give?
The IC50 was 1000 to 3000 nM.

How did the IC50 turn out when `CC(C)N1CC2(CN(C(=O)c3ccc4c(Oc5ccc(C(F)(F)F)cc5)cccc4c3)C2)C1` [Compound 20, (6-Isopropyl-2,6-diazaspiro[3.3]heptan-2-yl)(5-(4-(trifluoromethyl)phenoxy)naphthalen-2-yl)methanone] was run?
Its IC50 is 100 to 1000 nM.

Which IC50 does the source give for `NCC1CN(C(=O)c2ccc3c(Oc4ccc(C(F)(F)F)cc4)cccc3c2)C1` [Compound 7, (3-(Aminomethyl)azetidin-1-yl)(5-(4-(trifluoromethyl)phenoxy)naphthalen-2-yl)methanone] here?
Its IC50 is ≤ 100 nM.

With `O=C(c1ccc2c(Oc3ccc(C(F)(F)F)cc3)cccc2c1)N1CC(O)C1` [Compound 15, (3-Hydroxyazetidin-1-yl)(5-(4-(trifluoromethyl)phenoxy)naphthalen-2-yl)methanone] as the compound, how does the IC50 read?
The IC50 was ≤ 100 nM.

`O=C(c1ccc2c(Oc3ccc(C(F)(F)F)cc3)cccc2c1)N1CC(CO)C1` [Compound 13, (3-(Hydroxymethyl)azetidin-1-yl)(5-(4-(trifluoromethyl)phenoxy)naphthalen-2-yl)methanone] was tested. Which IC50 did it give?
Its IC50 is ≤ 100 nM.

For `O=C(c1ccc2c(Oc3ccc(C(F)(F)F)cc3)cccc2c1)N1CC2(CN(CCF)C2)C1` [Compound 23, (6-(2-Fluoroethyl)-2,6-diazaspiro[3.3]heptan-2-yl)(5-(4-(trifluoromethyl)phenoxy)naphthalen-2-yl)methanone], which IC50 is on record?
The IC50 was 100 to 1000 nM.

How did the IC50 turn out when `CC(C)NCC1CN(C(=O)c2ccc3c(Oc4ccc(C(F)(F)F)cc4)cccc3c2)C1` [Compound 34, (3-((Isopropylamino)methyl)azetidin-1-yl)(5-(4-(trifluoromethyl)phenoxy)naphthalen-2-yl)methanone] was run?
Its IC50 is 100 to 1000 nM.

For `CC(=O)NC1CN(C(=O)c2ccc3c(Oc4ccc(C(F)(F)F)cc4)cccc3c2)C1` [Compound 1, N-(1-(5-(4-(Trifluoromethyl)phenoxy)-2-naphthoyl)azetidin-3-yl)acetamide], which IC50 is on record?
The IC50 was ≤ 100 nM.

Which IC50 does the source give for `O=C(c1ccc2c(Oc3ccc(C(F)(F)F)cc3)cccc2c1)N1CC(CNCCF)C1` [Compound 36, (3-(((2-Fluoroethyl)amino)methyl)azetidin-1-yl)(5-(4-(trifluoromethyl)phenoxy)naphthalen-2-yl)methanone] here?
The IC50 was 100 to 1000 nM.

With `NC1CCN(C(=O)c2ccc3c(Oc4ccc(C(F)(F)F)cc4)cccc3c2)CC1` [Compound 4, (4-Aminopiperidin-1-yl)(5-(4-(trifluoromethyl)phenoxy)naphthalen-2-yl)methanone] as the compound, how does the IC50 read?
The IC50 was ≤ 100 nM.

For `CCNC1CN(C(=O)c2ccc3c(Oc4ccc(C(F)(F)F)cc4)cccc3c2)C1` [Compound 27, (3-(Ethylamino)azetidin-1-yl)(5-(4-(trifluoromethyl)phenoxy)naphthalen-2-yl)methanone], which IC50 is on record?
Its IC50 is 100 to 1000 nM.
